From patent US11466044B2 (WAYNE STATE UNIVERSITY, priority 2017, dated 2022)
In brackets after ≈: the same amount, converted by molar mass. Entries after “also recorded” stand apart in the source; their conditions may differ. Structures can show the parent of a compound that is named as a salt. Where two headings read alike, the source gives them in different places.

Tests used:
[1] = system: Enterobacter cloacae AG290; assay: MIC by broth microdilution, Enterobacter cloacae; type: cell-based; settings: strain AG290 Enterobacter cloacae; read-out: MIC AG290 E. cloacae
[2] = system: Acinetobacter baumannii pittii AG225; assay: MIC by broth microdilution, Acinetobacter baumannii; type: cell-based; settings: strain AG225 Acinetobacter baumannii pittii
M. abscessus = assay: MIC by broth microdilution, M. abscessus; type: cell-based; settings: Mycobacteroides abscessus
P aeruginosa = assay: MIC by broth microdilution, P aeruginosa isolates; type: cell-based, Pseudomonas aeruginosa; settings: strain AG220 Pseudomonas aeruginosa ATCC27853; for MIC: read-out: MIC AG220 P. aerugin
E coli wild type = assay: MIC by broth microdilution, wild type E coli; type: cell-based; settings: for MIC: Escherichia coli; for antibacterial activity, in words: MRSA and E coli, compared with the parent compound
[3] = system: mitochondrial ribosome (human chimeric); type: biochemical; settings: for Selectivity for Binding to the Bacterial Ribosome over the Mitochondrial Ribosome: Table 3 (Example 3); for IC50: mitochondrial, Table 4 (Example 3), read-out: IC50 Mit
Text: (§1) The antiribosomal activity of these compounds was investigated with cell-free translation assays using both wild type bacterial ribosomes and hybrid ribosomes carrying eukaryotic decoding A sites enabling the prediction of selectivity.

[4] = system: cytosolic ribosome (human chimeric); type: biochemical; settings: for Selectivity for Binding to the Bacterial Ribosome over the Cytosolic Ribosome: Table 3 (Example 3); for IC50: cytosolic, Table 4 (Example 3), read-out: IC50 Cyt
Text: as §1

MRSA = assay: MIC by broth microdilution, MRSA isolates; type: cell-based; settings: Table 1 (Example 3); for MIC: Staphylococcus aureus, MRSA
[5] = system: wild type bacterial ribosomes; assay: in-vitro translation assay, bacterial ribosomes; type: biochemical; settings: for IC50: bacterial ribosome, Table 4 (Example 3), read-out: IC50 Bac; for selectivity for the bacterial ribosome over mitochondrial (wild type, A1555G mutant) and cytosolic ribosomes, in words: compared with the parent compound
Text: as §1

[6] = system: A1555G mutant mitochondrial ribosome (human chimeric); assay: in-vitro translation assay, human chimeric ribosomes, A1555G mutant mitochondrial decoding site; type: biochemical; settings: Table 3 (Example 3)
Text: as §1

[7] = system: E coli carrying specific resistance determinants; assay: MIC by broth microdilution, E coli carrying specific resistance determinants; type: cell-based; settings: for MIC: Escherichia coli
M. smegmatis SZ380 = assay: MIC by broth microdilution, M. smegmatis; settings: for MIC: Mycolicibacterium smegmatis
[8] = system: Klebsiella pneumonia AG215; assay: MIC by broth microdilution, Klebsiella pneumonia; type: cell-based; settings: strain AG215 Klebsiella pneumonia; for MIC: Klebsiella pneumoniae, read-out: MIC AG215 K. pneumon
[9] = ATCC19977, ATCC 19977 WT, Table 5 (Example 3), read-out: MIC M. abscessus ATCC 19977 WT
[10] = read-out: MIC M. abscessus engineered Δeis2
[11] = ATCC, Table 4 (Example 3), read-out: MIC M. abscessus ATCC
[12] = Clin. Isol., Table 4 (Example 3), read-out: MIC M. abscessus Clin. Isol.
[13] = AG104 Wild type, Table 2 (Example 3), read-out: MIC E coli AG104 Wild type
[14] = ATCC25922, strain AG212 E. coli (ATCC25922), read-out: MIC AG212 E. coli
[15] = WT, Table 4 (Example 3), read-out: MIC E. coli WT
[16] = WT, Table 5 (Example 3), read-out: MIC E. coli WT
[17] = clinical isolate AG001, Table 1 (Example 3), read-out: MIC E coli AG001
[18] = clinical isolate AG003, Table 1 (Example 3), read-out: MIC E coli AG003
[19] = clinical isolate AG055, Table 1 (Example 3), read-out: MIC E coli AG055
[20] = clinical isolate AG038, read-out: MIC MRSA AG038
[21] = clinical isolate AG039, read-out: MIC MRSA AG039
[22] = clinical isolate AG042, read-out: MIC MRSA AG042
[23] = read-out: MIC E coli AG106 AAC(2′)
[24] = read-out: MIC E. coli AAC(2′) AG106
[25] = read-out: MIC E. coli AAC(2′) pH434
[26] = read-out: MIC E. coli AG106 AAC(2′)-Ia
[27] = read-out: MIC E. coli pGB2armA armA
[28] = read-out: MIC E. coli pH434 AAC(2′)-Ib
[29] = SZ380, read-out: MIC M. smegmatis SZ380 WT, SZ380 WT, Table 5 (Example 3)
[30] = SZ380, read-out: MIC SZ380 M. smegmatis, strain SZ380 Mycobacterium smegmatis

With `NCC1OC(OC2C(CO)OC(OC3C(O)C(N)CC(N)C3OC3OC(CN)C(O)C(O)C3NC=O)C2O)C(N)C(O)C1O` (centres unmarked) [Compound 182, 2′-N-Formamido-neomycin] the MIC [1] was 2 µg/mL (≈ 3.11 µM), the MIC [2] was 2 µg/mL (≈ 3.11 µM) and the MIC (M. abscessus; [9]) was 16 µg/mL (≈ 24.9 µM). It also gave an MIC (M. abscessus; [10]) of 0.5 µg/mL (≈ 0.778 µM), an MIC (M. abscessus; [11]) of 16 µg/mL (≈ 24.9 µM) and an MIC (M. abscessus; [12]) of 32 µg/mL (≈ 49.8 µM). The MIC (P aeruginosa) was > 64 µg/mL, the MIC (E coli wild type; AG006 Wild type, Table 2 (Example 3), read-out: MIC E coli AG006 Wild type) was 2 µg/mL (≈ 3.11 µM) and the MIC (E coli wild type; [13]) was 2 to 4 µg/mL (≈ 3.11 to 6.22 µM). For the same compound, the MIC (E coli wild type; [14]) was 4 µg/mL (≈ 6.22 µM), the MIC (E coli wild type; [15]) was 2 µg/mL (≈ 3.11 µM) and the MIC (E coli wild type; [16]) was 2 µg/mL (≈ 3.11 µM). The MIC (E coli wild type; [17]) was 4 to 8 µg/mL (≈ 6.22 to 12.4 µM), the MIC (E coli wild type; [18]) was 4 to 8 µg/mL (≈ 6.22 to 12.4 µM) and the MIC (E coli wild type; [19]) was 2 µg/mL (≈ 3.11 µM). The “antibacterial activity, in words” value (E coli wild type) was “retains most of the activity of the parent”, the “Selectivity for Binding to the Bacterial Ribosome over the Mitochondrial Ribosome” value (“Selectivity … over the Mitochondrial Ribosome” for short) [3] was 463 and the IC50 [3] was 54 µM. The “Selectivity for Binding to the Bacterial Ribosome over the Cytosolic Ribosome” value (from here on “Selectivity … over the Cytosolic Ribosome”) [4] was 1093, the IC50 [4] was 127 µM and the MIC (MRSA; [20]) was 2 to 4 µg/mL (≈ 3.11 to 6.22 µM). For the same compound, the MIC (MRSA; [21]) was > 32 µg/mL, the MIC (MRSA; [22]) was > 32 µg/mL and the IC50 [5] was 0.12 µM. The “selectivity for the bacterial ribosome over mitochondrial (wild type, A1555G mutant) and cytosolic ribosomes, in words” value [5] was “increased selectivity for the bacterial ribosome”, the “Selectivity for Binding to the Bacterial Ribosome over the Mutant Mitochondrial Ribosome” value [6] was 108 and the “effect of the AAC(2′) resistance determinant, in words” value ([7]; AAC(2′)) was “not susceptible to deactivation by AAC(2′)”. It also gave an MIC [7, 23] of 2 µg/mL (≈ 3.11 µM), an MIC [7, 24] of 2 µg/mL (≈ 3.11 µM) and an MIC [7, 25] of 8 to 16 µg/mL (≈ 12.4 to 24.9 µM). For the same compound, the MIC [7, 26] was 2 µg/mL (≈ 3.11 µM), the MIC [7, 27] was 8 µg/mL (≈ 12.4 µM) and the MIC [7, 28] was 8 to 16 µg/mL (≈ 12.4 to 24.9 µM). For the same compound, the MIC (M. smegmatis SZ380; [29]) was 1 µg/mL (≈ 1.56 µM), the MIC (M. smegmatis SZ380; [30]) was 1 µg/mL (≈ 1.56 µM) and the MIC [8] was 1 to 2 µg/mL (≈ 1.56 to 3.11 µM).

Compound `CNC1C(OC2C(N)CC(N)C(O)C2OC2OC(CO)C(OC3OC(CN)C(O)C(O)C3N)C2O)OC(CO)C(O)C1O` (centres unmarked) [Compound 115, 2′-N-Methyl-paromomycin acetate salt] has an MIC [1] of 2 µg/mL, an MIC [2] of 4 µg/mL and an MIC (M. abscessus; [9]) of 16 µg/mL. It also gave an MIC (M. abscessus; [10]) of 0.5 µg/mL, an MIC (M. abscessus; [11]) of 16 µg/mL and an MIC (M. abscessus; [12]) of 32 µg/mL. The MIC (P aeruginosa) was > 64 µg/mL, the MIC (E coli wild type; [13]) was 2 to 4 µg/mL and the MIC (E coli wild type; [14]) was 4 µg/mL. It also gave an MIC (E coli wild type; [15]) of 2 to 4 µg/mL, an MIC (E coli wild type; [16]) of 2 to 4 µg/mL and an MIC (E coli wild type; [17]) of 16 µg/mL. For the same compound, the MIC (E coli wild type; [18]) was 16 µg/mL, the MIC (E coli wild type; [19]) was 16 µg/mL and the “Selectivity … over the Mitochondrial Ribosome” value [3] was 3151. The IC50 [3] was 95 µM, the “Selectivity … over the Cytosolic Ribosome” value [4] was 1264 and the IC50 [4] was 38 µM. The MIC (MRSA; [20]) was 8 µg/mL, the MIC (MRSA; [21]) was > 128 µg/mL and the MIC (MRSA; [22]) was > 128 µg/mL. For the same compound, the MIC (MRSA; clinical isolate AG044, read-out: MIC MRSA AG044) was 4 µg/mL, the IC50 [5] was 0.03 µM and the “selectivity for the bacterial ribosome over mitochondrial (wild type, A1555G mutant) and cytosolic ribosomes, in words” value [5] was “increased selectivity for the bacterial ribosome”. For the same compound, the “Selectivity for Binding to the Bacterial Ribosome over the Mutant Mitochondrial Ribosome” value [6] was 1134, the MIC [7, 23] was 4 to 8 µg/mL and the MIC [7, 24] was 4 µg/mL. It also gave an MIC [7, 25] of 8 µg/mL, an MIC [7, 26] of 4 µg/mL and an MIC [7, 27] of 4 to 8 µg/mL. For the same compound, the MIC [7, 28] was 8 µg/mL, the MIC (M. smegmatis SZ380; [29]) was 4 to 8 µg/mL and the MIC (M. smegmatis SZ380; [30]) was 4 to 8 µg/mL. It also gave an MIC [8] of 2 µg/mL.

`CC(=O)NC1C(OC2C(N)CC(N)C(O)C2OC2OC(CO)C(OC3OC(CN)C(O)C(O)C3N)C2O)OC(CN)C(O)C1O` (centres unmarked) [Compound 183] was tested, and the “MIC AG225 A. baumannii” value [2] was >32 µg/mL, the “MIC AG220 P. aerugin” value (P aeruginosa) was >32 µg/mL and the “MIC E coli AG006 Wild type” value (E coli wild type; AG006 Wild type, Table 2 (Example 3)) was 64 µg/mL (≈ 97.5 µM). The “MIC E coli AG104 Wild type” value (E coli wild type; AG104 Wild type, Table 2 (Example 3)) was 128 µg/mL (≈ 195 µM), the “antibacterial activity, in words” value (E coli wild type) was “very substantial loss of activity; also recorded: very significantly reduced activity” and the “MIC E. coli WT” value (E coli wild type; WT, Table 5 (Example 3)) was 128 µg/mL (≈ 195 µM). The “MIC E coli AG001” value (E coli wild type; clinical isolate AG001, Table 1 (Example 3)) was >32 µg/mL, the “MIC E coli AG003” value (E coli wild type; clinical isolate AG003, Table 1 (Example 3)) was >32 µg/mL and the “MIC E coli AG055” value (E coli wild type; clinical isolate AG055, Table 1 (Example 3)) was >32 µg/mL. For the same compound, the “MIC AG212 E. coli” value (E coli wild type; strain AG212 E. coli (ATCC25922)) was >32 µg/mL, the “Selectivity … over the Mitochondrial Ribosome” value [3] was 18 and the “Selectivity … over the Cytosolic Ribosome” value [4] was 28. The “MIC MRSA AG038” value (MRSA; clinical isolate AG038) was >32 µg/mL, the “MIC MRSA AG039” value (MRSA; clinical isolate AG039) was >32 µg/mL and the “MIC MRSA AG042” value (MRSA; clinical isolate AG042) was >32 µg/mL. The “Selectivity for Binding to the Bacterial Ribosome over the Mutant Mitochondrial Ribosome” value [6] was 5.2, the “MIC E. coli AG106 AAC(2′)-Ia” value ([7]; AG106 AAC(2′)-Ia, Table 5 (Example 3)) was 128 µg/mL (≈ 195 µM) and the “MIC E coli AG106 AAC(2′)” value ([7]; AG106 AAC(2′), Table 2 (Example 3)) was 128 µg/mL (≈ 195 µM). For the same compound, the “MIC E. coli pGB2armA armA” value ([7]; pGB2armA armA, Table 5 (Example 3)) was 128-256 μg/ml, the “MIC M. smegmatis SZ380 WT” value (M. smegmatis SZ380; SZ380 WT, Table 5 (Example 3)) was 8 µg/mL (≈ 12.2 µM) and the “MIC SZ380 M. smegmatis” value (M. smegmatis SZ380; strain SZ380 Mycobacterium smegmatis) was 8 µg/mL (≈ 12.2 µM). For the same compound, the “MIC AG215 K. pneumon” value [8] was >32 µg/mL.
